# Reference: patent publication US8148392B2, “2-indolyl imidazo [4,5-d] phenanthroline derivatives and their use in the treatment of cancer” (Lorus Therapeutics Inc., priority 2005, dated 2012)
# Read-outs that look alike come from different tables or passages of the source.
# Columns and labels:
# [1] = system: KLF4; assay: KLF4 gene expression by RT-PCR, MDA-MB-231; type: cell-based, human; settings: MDA-MB-231, relative to vehicle control as 1
# Excerpt: (§1) Gene expression levels of KLF4, induced by compounds of Formula I, were also examined on various cancer cell types by RT-PCR. Fold changes in KLF4 in compound-treated cells were expressed relative to KLF4 expression in vehicle control-treated cells of respective cell type as “1”. […] Additionally, xenografts of MDA-MB-435 implanted into mammary fat pads of female SCID mice have shown immunohistochemical staining consistent with melanocytic origin (Ellison G, Klinowska T, Westwood R F, Docter E, French T, Fox J C. (2002) Mol Pathol. 55(5): 294-299). The breast cancer cell line MDA-MB-435 may be expected to function differently than the other breast cancer cell lines.
# [2] = system: SK-MEL-2 melanoma cells; assay: XTT cell proliferation assay, SK-MEL-2; type: cell-based, human; settings: read-out: IC50 (cell growth inhibition)
# Protocol: (§2) Cell growth inhibition IC50 (μM) by compounds of Formula I was tested on various cancer cell types by XTT cell proliferation assay. The growth inhibitory effects of the compounds of Formula I as shown below for the melanoma cell line SK-MEL-2 were reproducible by Lorus Therapeutics Inc.
# [3] = system: CCRF-CEM leukemia cells; assay: XTT cell proliferation assay, CCRF-CEM; type: cell-based, human; settings: read-out: IC50 (cell growth inhibition)
# Protocol: as §2
# [4] = system: human colon carcinoma HT-29 cells; assay: XTT cell proliferation assay, HT-29; type: cell-based
# Outline: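 HT-29 cells in McCoy's 5A with 10% FBS, 37° C., 5% CO2, exposed to varying compound concentrations for 6-7 days. Viable cells quantified by XTT reduction to formazan; growth inhibition expressed as IC50 (μM).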
# [5] = system: KLF4; assay: KLF4 gene expression by RT-PCR, PC-3; type: cell-based, human; settings: PC-3, relative to vehicle control as 1
# Excerpt: as §1
# [6] = system: KLF4; assay: KLF4 gene expression by RT-PCR, H-460; type: cell-based, human; settings: H-460, relative to vehicle control as 1
# Excerpt: as §1
# Expressions of KLF2, 4 and 6 genes in H-460 cells, treated with vehicle control or 2.5 μM compound 3 or compound 7, were measured by RT-PCR. Gene expression was presented relative to respective gene expression in vehicle control-treated group as “1”.
# [7] = system: KLF4; assay: KLF4 gene expression by RT-PCR, SK-MEL-2; type: cell-based, human; settings: SK-MEL-2, relative to vehicle control as 1
# Excerpt: as §1
# [8] = system: PC-3 prostate cancer cells; assay: XTT cell proliferation assay, PC-3; type: cell-based, human; settings: read-out: IC50 (cell growth inhibition)
# Protocol: as §2
# [9] = system: KLF4; assay: KLF4 gene expression by RT-PCR, HCT-116; type: cell-based, human; settings: HCT-116, relative to vehicle control as 1
# Excerpt: as §1
# [10] = system: KLF4; assay: KLF4 gene expression by RT-PCR, MOLT-4; type: cell-based, human; settings: MOLT-4, relative to vehicle control as 1
# Excerpt: as §1
# [11] = system: MDA-MB-435 breast cancer cells; assay: XTT cell proliferation assay, MDA-MB-435; type: cell-based, human; settings: read-out: IC50 (cell growth inhibition)
# Protocol: as §2
# [12] = system: KLF4; assay: KLF4 gene expression by RT-PCR, CCRF-CEM; type: cell-based, human; settings: relative to vehicle control as 1
# Excerpt: as §1
# [13] = system: H-460 lung cancer cells; assay: XTT cell proliferation assay, H-460; type: cell-based, human; settings: read-out: IC50 (cell growth inhibition)
# Protocol: as §2
# [14] = system: HCT-116 colon cancer cells; assay: XTT cell proliferation assay, HCT-116; type: cell-based, human; settings: read-out: IC50 (cell growth inhibition)
# Protocol: as §2
# [15] = system: DU-145 prostate cancer cells; assay: XTT cell proliferation assay, DU-145; type: cell-based, human; settings: read-out: IC50 (cell growth inhibition)
# Protocol: as §2
# [16] = system: KLF4; assay: KLF4 gene expression by RT-PCR, MDA-MB-435; type: cell-based, human; settings: MDA-MB-435, relative to vehicle control as 1
# Excerpt: as §1
# [17] = system: KLF4; assay: KLF4 gene expression by RT-PCR, DU-145; type: cell-based, human; settings: DU-145, relative to vehicle control as 1
# Excerpt: as §1
# [18] = system: KLF4; assay: KLF4 gene expression by RT-PCR, HT-29; type: cell-based, human; settings: HT-29, relative to vehicle control as 1
# Protocol: (§3) To determine whether compounds of Formula I can chelate zinc in cells, the effect of compound 3 on the expression level of a zinc-regulated gene, metallothionein 1A (MT1A), in human colon carcinoma HT-29 cells, was determined. HT-29 cells, 1×10^6 cells in 10 mL volume of the growth medium were seeded in 100 mm dishes and incubated overnight at 37° C. The medium was removed and replaced with the growth medium containing 35 μM ZnCl2, 1 μM or 4 μM TPEN (NNNN-tetrakis(2-pyridyl-methyl)ethylenediamine), or 1 μM or 4 μM compound 3, or 0.1% DMSO vehicle control. After incubation for 16 hours, the cells were detached by trypsinization, collected by centrifugation and washed once with PBS. Total RNA was extracted by using TRIZOL (Invitrogen, Life Technologies, Carlsbad, Calif.), following manufacturer's instruction, and the level of MT1A mRNA was measured by real time PCR using the comparative CT method as follows. First strand cDNA was synthesized from 200 ng total RNA in Biometra Tpersonal Thermal Cycler (Abgene, UK), using pd(N)6 random hexamer (Amersham Biosciences, Piscataway, N.J.) and SuperScript™ II Reverse Transcriptase kit (Invitrogen) by following manufacturer's protocol. Real-time PCR was performed in ABI Prism 7000 Sequence Detection System (Applied Biosystems Inc., ABI, Foster City, Calif.), using 5 μL of cDNA synthesized by above-mentioned procedure and respective TaqMan® Gene Expression Assays (ABI) by following ABI TaqMan® Universal PCR master mix protocol.
# The ability of compounds of Formula I to modulate the mRNA level of a transition metal-regulated tumour suppressor gene was determined in vitro as follows. Compound 3 was tested to determine its ability to increase the expression of zinc-regulated tumour suppressor KLF4 mRNA in colon carcinoma HT-29 cells. […] HT-29 cells were incubated for 16 hours with DMSO as a vehicle control, 35 μM ZnCl2, 1 μM or 4 μM of compound 3, or 1 μM or 4 μM TPEN for 16 hours and mRNA was extracted from the cells as described in Example 19. The expression of KLF4 mRNA was analyzed by real-time polymerase chain reaction using the comparative CT method also as described in Example 19. Compound 3 induced the expression of KLF4 mRNA (approximately 8-fold) in HT-29 cells compared with HT-29 cells treated with vehicle alone (See FIG. 8).
# as §1
# The change in gene expression of KLF4 upon zinc depletion following compound 3 treatment was determined by RT-PCR as follows. HT-29 cells were treated with 1 μM compound 3 for the indicated time (FIG. 39A) or HT-29 cells were treated with 1 μM compound 3, 35 μM ZnCl2 or compund 3 and ZnCl2 together for 16 hr (FIG. 39B). Total RNA was extracted and gene expression level was determined by RT-PCR.
# Fold change in KLF4 gene expression was presented relative to KLF4 expression in non-specific siRNA-transfected cells treated with vehicle control.
# [19] = system: MDA-MB-231 breast cancer cells; assay: XTT cell proliferation assay, MDA-MB-231; type: cell-based, human; settings: read-out: IC50 (cell growth inhibition)
# Protocol: as §2
# [20] = system: MOLT-4 leukemia cells; assay: XTT cell proliferation assay, MOLT-4; type: cell-based, human; settings: read-out: IC50 (cell growth inhibition)
# Protocol: as §2
# [21] = system: intracellular zinc ions in HT-29 cells; assay: Chelation of intracellular zinc in HT-29 cells, Zinquin fluorescence; type: cell-based, human; settings: HT-29 with or without pre-loading with 35 μM ZnCl2, 30 min
# Protocol: To determine the chelation property of compound 3 with intracellular zinc ions, HT-29 cells, with or without pre-loaded with 35 μM ZnCl2 were treated with compound 3, a known zinc chelator TPEN or vehicle control (DMSO), and intracellular free zinc was determined by measuring Zinquin fluorescence as described in the preceding Example (FIG. 37). HT-29 cells (4×10^5 cells/group) were pre-treated with 35 μM ZnCl2 for 20 min, followed by addition of indicated concentrations of compound 3 or TPEN and 10 μM Zinquin for 30 min at 37° C., and the fluorescence count was measured (FIG. 37A). For measurement of chelation of endogenous zinc ions in HT-29 cells, HT-29 cells (1.5×10^6 cells/group) were treated with indicated concentrations of compound 3 and 10 μM Zinquin for 30 min at 37° C., and the fluorescence count was measured (FIG. 37B).
# [22] = system: metallothionein 1A (MT1A); assay: Metallothionein 1A (MT1A) mRNA expression in HT-29 cells, real time PCR; type: cell-based, human; settings: HT-29, versus DMSO control, in words
# Protocol: as §3
# The effect of compound 3 and compound 7 treatment on the expressions of a zinc-storage protein meallothionein 1A (MT1A) (FIG. 29A), a copper transporter, Ctrl also known as SLC31A1 (FIG. 29B) and an iron transporter; transferrin receptor 1 (TfR1) (FIG. 29C) were measured and compared with a known zinc chelator TPEN, a copper chelator tetramine and an iron chelator DFO, respectively. Despite in vitro chelation of Cu^+2, increase in copper-sensitive gene after compound 3 treatment was transient.
# HT-29 cells were treated with 1 μM compound 3 for the indicated time and MT1A gene expression was measured as follows. Total RNA was extracted using TRIZOL method and gene expression level was determined by quantitative reverse-transcription polymerase chain reaction (RT-PCR). MT1A gene expression was normalized with β-actin gene expression in the same sample. Fold change in MT1A was expressed relative to MT1A level of DMSO control at respective time points.
# To verify that the MT1A gene expression reflected the intracellular zinc level, HT-29 cells were treated with 1 μM compound 3, 35 μM ZnCl2 or compound 3 and ZnCl2 together for 16 hr (FIG. 38B). MT1A gene expression was determined by RT-PCR as described above. MT1A gene expression was elevated in response to increased intracellular zinc ions in ZnCl2-treated cells.
# The ability of compounds of Formula I to modulate gene expression of MT1A (FIG. 55A), MTF-1 (FIG. 55B), Cyclin D1 (FIG. 55C) and KLF4 (FIG. 55D) was determined by RT-PCR. HT-29 cells were treated with 1 μM compound 3 or compound 7, 35 μM ZnCl2, compound 3 and ZnCl2 together, or compound 7 and ZnCl2 together for 8 to 16 hr. The respective gene expression was normalized with β-actin gene expression in the same sample. Fold change in gene expression was expressed relative to the respective gene level of DMSO control.
# The effect of compound 3 and compound 64 on gene expression changes in MT1A (FIG. 57A), MTF-1 (FIG. 57B), Cyclin D1 (FIG. 57C) and KLF4 (FIG. 57D) in HT-29 cells was determined by RT-PCR. HT-29 cells were treated with 1 μM compound 3 or compound 64, 35 μM ZnCl2, compound 3 and ZnCl2 together, or compound 64 and ZnCl2 together for 8 to 16 hr. The respective gene expression was normalized with β-actin gene expression in the same sample. Fold change in gene expression was expressed relative to the respective gene level of DMSO control.
# [23] = HT-29, XTT, as Example 13, Table 7
# [24] = HT-29 colon, Table 8, read-out: IC50 (cell growth inhibition)
compound,measurement,setting,value
CC(C)(C)c1ccc2[nH]c(C(C)(C)C)c(-c3nc4c5cccnc5c5ncccc5c4[nH]3)c2c1 [Compound 63],KLF4 (gene fold increase),[1],1.77 fold
same,IC50,[2],170 nM
same,IC50,[3],300 nM
same,IC50,[4]; [23],0.2 µg/mL
same,IC50,[4]; [24],200 nM
same,KLF4 (gene fold increase),[5],1.34 fold
same,KLF4 (gene fold increase),[6],1.55 fold
same,KLF4 (gene fold increase),[7],5.46 fold
same,IC50,[8],320 nM
same,KLF4 (gene fold increase),[9],2.82 fold
same,KLF4 (gene fold increase),[10],223.63 fold
same,IC50,[11],500 nM
same,KLF4 (gene fold increase),[12],76.37 fold
same,IC50,[13],400 nM
same,IC50,[14],300 nM
same,IC50,[15],400 nM
same,KLF4 (gene fold increase),[16],7.67 fold
same,KLF4 (gene fold increase),[17],12.95 fold
same,KLF4 (gene fold increase),[18],5.98 fold
same,IC50,[19],3700 nM
same,IC50,[20],200 nM
Cc1ccc2[nH]c(C34CC5CC(CC(C5)C3)C4)c(-c3nc4c5cccnc5c5ncccc5c4[nH]3)c2c1 [Compound 69],KLF4 (gene fold increase),[1],1.61 fold
same,IC50,[2],180 nM
same,IC50,[3],200 nM
same,IC50,[4]; [23],0.2 µg/mL
same,IC50,[4]; [24],200 nM
same,KLF4 (gene fold increase),[5],0.95 fold
same,KLF4 (gene fold increase),[6],1.95 fold
same,KLF4 (gene fold increase),[7],4 fold
same,IC50,[8],340 nM
same,KLF4 (gene fold increase),[9],3.11 fold
same,KLF4 (gene fold increase),[10],276.28 fold
same,IC50,[11],600 nM
same,KLF4 (gene fold increase),[12],74.29 fold
same,IC50,[13],400 nM
same,IC50,[14],160 nM
same,IC50,[15],400 nM
same,KLF4 (gene fold increase),[16],8.91 fold
same,KLF4 (gene fold increase),[17],7.46 fold
same,KLF4 (gene fold increase),[18],6.54 fold
same,IC50,[19],3300 nM
same,IC50,[20],200 nM
"c1ccc(CN(CCN(Cc2ccccn2)Cc2ccccn2)Cc2ccccn2)nc1 [TPEN, NNNN-tetrakis(2-pyridyl-methyl)ethylenediamine, reference compound]",intracellular free zinc (Zinquin fluorescence),[21],Dose-dependent decrease in both pre-loaded zinc and endogenous zinc levels
same,"MT1A gene expression, change",[22],decreased the expression of MT1A
